COC(=O)/C=C(\C)NC(C(=O)[O-])c1ccc(O)cc1.[K+] (stereo not given)
Conditions | solubility (mole fraction)
in ethanol, 278.22 K | 0.000319
in ethanol, 283.26 K | 0.000342
in ethanol, 288.21 K | 0.000369
in ethanol, 293.04 K | 0.0004
in ethanol, 298.07 K | 0.000438
in ethanol, 303.29 K | 0.000481
in ethanol, 308.21 K | 0.000527
in ethanol, 313.09 K | 0.000577
in ethanol, 318.23 K | 0.000635
in ethanol, 323.11 K | 0.000694
in methanol, 278.24 K | 0.00281
in methanol, 283.28 K | 0.00303
in methanol, 288.04 K | 0.00325
in methanol, 293.35 K | 0.0035
in methanol, 298.31 K | 0.00375
in methanol, 302.97 K | 0.00398
in methanol, 308.19 K | 0.00426
in methanol, 313.32 K | 0.00453
in methanol, 318.11 K | 0.0048
in methanol, 322.45 K | 0.00505
